Activity calls are given as the source filed them. The rule behind the calls is not given here.
Columns and labels:
[1] = target: T1, Phosphotyrosine protein phosphatase (Mycobacterium tuberculosis, UniProt A0A045ISB3); assay: Inhibition of Mycobacterium tuberculosis H37Rv ptpB expressed in Escherichia coli BL21 (DH3) cells using 6,8-difluoromethylumbelliferyl phosphate as substrate incubated for 30 mins by fluorescence based assay
T1 sequence (A0A045ISB3 whole entry): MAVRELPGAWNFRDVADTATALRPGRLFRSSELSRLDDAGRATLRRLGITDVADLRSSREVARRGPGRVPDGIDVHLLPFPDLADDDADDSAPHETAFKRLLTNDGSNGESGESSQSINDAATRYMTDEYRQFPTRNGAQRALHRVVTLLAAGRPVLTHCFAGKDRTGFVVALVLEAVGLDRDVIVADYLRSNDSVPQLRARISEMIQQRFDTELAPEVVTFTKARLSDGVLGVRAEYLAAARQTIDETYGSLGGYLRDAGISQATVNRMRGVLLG

Candida albicans = assay: Antifungal activity against Candida albicans; assay type: functional, organism-based
[2] = target: T1, Phosphotyrosine protein phosphatase; assay: Non-competitive inhibition of Mycobacterium tuberculosis H37Rv ptpB expressed in Escherichia coli BL21 (DH3) cells using p-nitrophenyl phosphate as substrate incubated for 30 mins by Lineweaver-Burk blot analysis

| SMILES | IC50 ([1]; read-out: IC50) | Activity (Candida albicans) | Ki [2] | IC50 [1] |
| --- | --- | --- | --- | --- |
| CC[C@H](COC(C)=O)C[C@H](C)C[C@H](C)C[C@@H](C)/C=C(C)/C=C(/C=C/C=C/C(=O)O)C(=O)O | 4 µM | inactive | 5.2 µM |  |
| CC[C@H](C)C[C@H](C)C[C@@H]1CO[C@@H](\C(C)=C/C(=C/C=C/CC(=O)O)C(=O)O)[C@H](C)C1 | 12 µM | inactive | 7 µM |  |
| CC1(C)CC[C@]2(C(=O)O)CC[C@]3(C)C(=CC[C@@H]4[C@@]5(C)CC[C@H](O)C(C)(C)[C@@H]5CC[C@]43C)[C@@H]2C1 [OLEANOLIC_ACID] |  |  |  | 14 µM |
| CC[C@H](C)C[C@H](C)C[C@@H]1CO[C@@H](/C(C)=C/C(=C\C=C\CC(=O)O)C(=O)O)[C@H](C)C1 | 5.1 µM | inactive | 8.9 µM |  |
| CC[C@H](C)C[C@H](C)C[C@H](CO)C[C@@H](C)/C=C(C)/C=C(C)/C=C/C=C/C(=O)N1CCCC(O)C1=O (some centres not stated) | 11 µM | inactive | 16 µM |  |
| C/C(=C\[C@H](C)C[C@@H](C)C[C@@H](C)C[C@@H](C)[C@@H](C)O)C(=O)NCCC(=O)O | > 50 µM | inactive |  |  |
| CC[C@H](C)C[C@H](C)C[C@H](CO)C[C@@H](C)/C=C(C)/C=C(C)\C=C\C=C\C(=O)N1CCCC(O)C1=O (some centres not stated) | > 50 µM | inactive |  |  |

Reference: ChEMBL document CHEMBL4334529, “Polypropionate Derivatives with Mycobacterium tuberculosis Protein Tyrosine Phosphatase B Inhibitory Activities from the Deep-Sea-Derived Fungus Aspergillus fischeri FS452” (J Nat Prod, 2019)
